Data as given in patent US20240400555A1 (Initial Therapeutics, Inc., priority 2023, published 2024).

System: MV-4-11 cells
Experiment: Cell Viability Assay in MV-4-11 Cells
Assay type: cell-based
Details: Homo sapiens, MV4-11, 72 h, MV-4-11 cells, 72 h, Cell-Titer Glo; read-out: IC50
Summary of the method: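 MV-4-11 cells at 7,000/well in IMDM with 10% FBS, exposed to compound for 72 h. Viability by CellTiter-Glo luminescence, normalized to DMSO as 100%, fitted with a four-parameter curve.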

SMILES	IC50 [nM]
Cc1cccc2ccnc(N(C(=O)c3ccc(Nc4nccc(N)n4)cc3F)[C@@H]3CCCNC3)c12 [Example 848, (R)-4-((4-aminopyrimidin-2-yl)amino)-2-fluoro-N-(8-methylisoquinolin-1-yl)-N-(piperidin-3-yl)benzamide]	260
O=C(c1ccc(-n2nnc3cccnc32)cc1F)N(c1nccc2cnccc12)[C@@H]1CCCNC1 [Example 849, (R)-4-(3H-[1,2,3]triazolo[4,5-b]pyridin-3-yl)-2-fluoro-N-(2,6-naphthyridin-1-yl)-N-(piperidin-3-yl)benzamide]	2600
COCCn1cc(-c2ccc(C(=O)N(c3nccc4cc(F)cc(C)c34)[C@@H]3CCCNC3)c(F)c2)nn1 [Example 850, 2-fluoro-N-(6-fluoro-8-methyl-1-isoquinolyl)-4-[1-(2-methoxyethyl)triazol-4-yl]-N-[(3R)-3-piperidyl]benzamide]	52
COCc1c(-c2ccc(C(=O)N(c3nccc4scc(C)c34)[C@@H]3CCCNC3)c(F)c2)nnn1C [Example 851, 2-fluoro-4-[5-(methoxymethyl)-1-methyl-triazol-4-yl]-N-(3-methylthieno[3,2-c]pyridin-4-yl)-N-[(3R)-3-piperidyl]benzamide]	61
COCCc1nnc(-c2ccc(C(=O)N(c3nccc4cc(F)cc(C)c34)[C@@H]3CCCNC3)c(F)c2)s1 [Example 852, 2-fluoro-N-(6-fluoro-8-methyl-1-isoquinolyl)-4-[5-(2-methoxyethyl)-1,3,4-thiadiazol-2-yl]-N-[(3R)-3-piperidyl]benzamide]	56
COCc1nnc(-c2ccc(C(=O)N(c3nccc4cc(F)cc(C)c34)[C@@H]3CCCNC3)c(F)c2)s1 [Example 853, 2-fluoro-N-(6-fluoro-8-methyl-1-isoquinolyl)-4-[5-(methoxymethyl)-1,3,4-thiadiazol-2-yl]-N-[(3R)-3-piperidyl]benzamide]	55
CCOCc1nnc(-c2ccc(C(=O)N(c3nccc4cc(F)cc(C)c34)[C@@H]3CCCNC3)c(F)c2)s1 [Example 854, 4-[5-(ethoxymethyl)-1,3,4-thiadiazol-2-yl]-2-fluoro-N-(6-fluoro-8-methyl-1-isoquinolyl)-N-[(3R)-3-piperidyl]benzamide]	80
Cc1ccc(Cl)c2ccnc(N(C(=O)c3ccc(-c4cn(C)nn4)cc3)[C@@H]3CCCNC3)c12 [Example 855, N-(5-chloro-8-methyl-1-isoquinolyl)-4-(1-methyltriazol-4-yl)-N-[(3R)-3-piperidyl]benzamide]	420
Cc1nnc(-c2ccc(C(=O)N(c3nccc4c(Cl)ccc(C)c34)[C@@H]3CCCNC3)cc2)s1 [Example 856, N-(5-chloro-8-methyl-1-isoquinolyl)-4-(5-methyl-1,3,4-thiadiazol-2-yl)-N-[(3R)-3-piperidyl]benzamide]	260
Cc1nnc(-c2ccc(C(=O)N(c3nccc4c(Cl)ccc(C)c34)[C@@H]3CCCNC3)nc2)s1 [Example 857, N-(5-chloro-8-methyl-1-isoquinolyl)-5-(5-methyl-1,3,4-thiadiazol-2-yl)-N-[(3R)-3-piperidyl]pyridine-2-carboxamide]	480
COc1cc(C)c2c(N(C(=O)c3ccc(-c4cn(C)nn4)cc3)[C@@H]3CCCNC3)nccc2c1 [Example 858, N-(6-methoxy-8-methyl-1-isoquinolyl)-4-(1-methyltriazol-4-yl)-N-[(3R)-3-piperidyl]benzamide]	55
CCn1cc(-c2ccc(C(=O)N(c3nccc4scc(C)c34)[C@@H]3CCCNC3)cc2)nn1 [Example 859, 4-(1-ethyltriazol-4-yl)-N-(3-methylthieno[3,2-c]pyridin-4-yl)-N-[(3R)-3-piperidyl] benzamide]	100
COc1cc(C)c2c(N(C(=O)c3ccc(-c4nnc(C)s4)cc3F)[C@@H]3CCCNC3)nccc2c1 [Example 860, 2-fluoro-N-(6-methoxy-8-methyl-1-isoquinolyl)-4-(5-methyl-1,3,4-thiadiazol-2-yl)-N-[(3R)-3-piperidyl]benzamide]	48
Cc1ccc(C)c2c(N(C(=O)c3ccc(-c4cn(C)nn4)cc3)[C@@H]3CCCNC3)nccc12 [Example 861, N-(5,8-dimethyl-1-isoquinolyl)-4-(1-methyltriazol-4-yl)-N-[(3R)-3-piperidyl]benzamide]	620
Cc1cc(F)c(F)c2ccnc(N(C(=O)c3ccc(-c4cn(C)nn4)cc3)[C@@H]3CCCNC3)c12 [Example 862, N-(5,6-difluoro-8-methyl-1-isoquinolyl)-4-(1-methyltriazol-4-yl)-N-[(3R)-3-piperidyl]benzamide]	220
CCn1cc(-c2ccc(C(=O)N(c3nccc4cc(OC)cc(C)c34)[C@@H]3CCCNC3)c(F)c2)nn1 [Example 863, 4-(1-ethyltriazol-4-yl)-2-fluoro-N-(6-methoxy-8-methyl-1-isoquinolyl)-N-[(3R)-3-piperidyl] benzamide]	29
COc1cc(C)c2c(N(C(=O)c3ccc(-c4nnc(C)s4)cn3)[C@@H]3CCCNC3)nccc2c1 [Example 864, N-(6-methoxy-8-methyl-1-isoquinolyl)-5-(5-methyl-1,3,4-thiadiazol-2-yl)-N-[(3R)-3-piperidyl]pyridine-2-carboxamide]	130

SMILES	IC50 [nM]
CCOc1cc(C)c2c(N(C(=O)c3ccc(-c4nnc(C)s4)cn3)[C@@H]3CCCNC3)nccc2c1 [Example 865, N-(6-ethoxy-8-methyl-1-isoquinolyl)-5-(5-methyl-1,3,4-thiadiazol-2-yl)-N-[(3R)-3-piperidyl]pyridine-2-carboxamide]	150
COc1cc(C)c2c(N(C(=O)c3ccc(-c4nnc(C)s4)cc3)[C@@H]3CCCNC3)nccc2c1 [Example 866, N-(6-methoxy-8-methyl-1-isoquinolyl)-4-(5-methyl-1,3,4-thiadiazol-2-yl)-N-[(3R)-3-piperidyl]benzamide]	52
COc1ccc2c(N(C(=O)c3ccc(-c4nnc(C)s4)cn3)[C@@H]3CCCNC3)nccc2c1F [Example 867, N-(5-fluoro-6-methoxy-1-isoquinolyl)-5-(5-methyl-1,3,4-thiadiazol-2-yl)-N-[(3R)-3-piperidyl]pyridine-2-carboxamide]	970
COc1ccc2c(N(C(=O)c3ccc(-c4nnc(C)s4)cc3)[C@@H]3CCCNC3)nccc2c1F [Example 868, N-(5-fluoro-6-methoxy-1-isoquinolyl)-4-(5-methyl-1,3,4-thiadiazol-2-yl)-N-[(3R)-3-piperidyl]benzamide]	760
COc1ccc2c(N(C(=O)c3ccc(-c4cn(C)nn4)cc3)[C@@H]3CCCNC3)nccc2c1Cl [Example 869, N-(5-chloro-6-methoxy-1-isoquinolyl)-4-(1-methyltriazol-4-yl)-N-[(3R)-3-piperidyl]benzamide]	1400
COc1ccc(C)c2c(N(C(=O)c3ccc(-c4nnc(C)s4)cn3)[C@@H]3CCCNC3)nccc12 [Example 870, N-(5-methoxy-8-methyl-1-isoquinolyl)-5-(5-methyl-1,3,4-thiadiazol-2-yl)-N-[(3R)-3-piperidyl]pyridine-2-carboxamide]	1900
COc1ccc(C)c2c(N(C(=O)c3ccc(-c4nnc(C)s4)cc3)[C@@H]3CCCNC3)nccc12 [Example 871, N-(5-methoxy-8-methyl-1-isoquinolyl)-4-(5-methyl-1,3,4-thiadiazol-2-yl)-N-[(3R)-3-piperidyl]benzamide]	720
COc1ccc(C)c2c(N(C(=O)c3ccc(-c4cn(C)nn4)cc3)[C@@H]3CCCNC3)nccc12 [Example 872, N-(5-methoxy-8-methyl-1-isoquinolyl)-4-(1-methyltriazol-4-yl)-N-[(3R)-3-piperidyl]benzamide]	2100
COc1ccc(F)c2c(N(C(=O)c3ccc(-c4cn(C)nn4)cc3)[C@@H]3CCCNC3)nccc12 [Example 873, N-(8-fluoro-5-methoxy-1-isoquinolyl)-4-(1-methyltriazol-4-yl)-N-[(3R)-3-piperidyl] benzamide]	> 5200
COc1c(F)ccc2c(N(C(=O)c3ccc(-c4cn(C)nn4)cc3F)[C@@H]3CCCNC3)nccc12 [Example 874, 2-fluoro-N-(6-fluoro-5-methoxy-1-isoquinolyl)-4-(1-methyltriazol-4-yl)-N-[(3R)-3-piperidyl] benzamide]	4000
COCc1nnc(-c2ccc(C(=O)N(c3nccc4scc(C)c34)[C@@H]3CCCNC3)cc2)s1 [Example 875, 4-[5-(methoxymethyl)-1,3,4-thiadiazol-2-yl]-N-(3-methylthieno[3,2-c]pyridin-4-yl)-N-[(3R)-3-piperidyl]benzamide]	86
COCCCc1nnc(-c2ccc(C(=O)N(c3nccc4scc(C)c34)[C@@H]3CCCNC3)cc2)s1 [Example 876, 4-[5-(3-methoxypropyl)-1,3,4-thiadiazol-2-yl]-N-(3-methylthieno[3,2-c]pyridin-4-yl)-N-[(3R)-3-piperidyl]benzamide]	290
Cc1nnc(-c2ccc(C(=O)N(c3nccc4c(C)ccc(C)c34)[C@@H]3CCCNC3)nc2)s1 [Example 877, N-(5,8-dimethyl-1-isoquinolyl)-5-(5-methyl-1,3,4-thiadiazol-2-yl)-N-[(3R)-3-piperidyl]pyridine-2-carboxamide]	790
Cc1nnc(-c2ccc(C(=O)N(c3nccc4c(C)ccc(C)c34)[C@@H]3CCCNC3)cc2)s1 [Example 878, N-(5,8-dimethyl-1-isoquinolyl)-4-(5-methyl-1,3,4-thiadiazol-2-yl)-N-[(3R)-3-piperidyl]benzamide]	560
Cc1cccc2ccnc(N(C(=O)c3ccc(-c4nnc(CCC#N)s4)cc3F)[C@@H]3CCCNC3)c12 [Example 879, 4-[5-(2-cyanoethyl)-1,3,4-thiadiazol-2-yl]-2-fluoro-N-(8-methyl-1-isoquinolyl)-N-[(3R)-3-piperidyl]benzamide]	110
Cc1cccc2ccnc(N(C(=O)c3ccc(-c4nnc(CCC#N)s4)cc3)[C@@H]3CCCNC3)c12 [Example 880, 4-[5-(2-cyanoethyl)-1,3,4-thiadiazol-2-yl]-N-(8-methyl-1-isoquinolyl)-N-[(3R)-3-piperidyl]benzamide]	180
